Measurements published in US5506259A, “β-mercapto-propanamide derivatives useful in the treatment of cardiovascular diseases” (Zambon Group S.p.A., priority 1993, dated 1996).

Columns and labels:
[1] = biological target: T1, neutral endopeptidase enzyme (NEP) (Rattus norvegicus, UniProt P07861); test: In vitro NEP-inhibitory activity (inhibition of formation of [^3 H]-Tyr-Gly-Gly from [^3 H][Leu^5 ]-enkephaline in kidney cortex membranes); type: biochemical, male Sprague-Dawley rats; settings: rat kidney cortex membranes 5 μg/ml protein; [^3 H][Leu^5 ]-enkephaline 15 nM; Bestatin 1 mM; pH 7.4; 20 minutes at 30° C.
T1 construct: Membranes from kidney cortex were prepared according to the following procedure; from tissue; host or cells: kidney cortex membranes of male Sprague-Dawley rats
T1 sequence (P07861 1-750): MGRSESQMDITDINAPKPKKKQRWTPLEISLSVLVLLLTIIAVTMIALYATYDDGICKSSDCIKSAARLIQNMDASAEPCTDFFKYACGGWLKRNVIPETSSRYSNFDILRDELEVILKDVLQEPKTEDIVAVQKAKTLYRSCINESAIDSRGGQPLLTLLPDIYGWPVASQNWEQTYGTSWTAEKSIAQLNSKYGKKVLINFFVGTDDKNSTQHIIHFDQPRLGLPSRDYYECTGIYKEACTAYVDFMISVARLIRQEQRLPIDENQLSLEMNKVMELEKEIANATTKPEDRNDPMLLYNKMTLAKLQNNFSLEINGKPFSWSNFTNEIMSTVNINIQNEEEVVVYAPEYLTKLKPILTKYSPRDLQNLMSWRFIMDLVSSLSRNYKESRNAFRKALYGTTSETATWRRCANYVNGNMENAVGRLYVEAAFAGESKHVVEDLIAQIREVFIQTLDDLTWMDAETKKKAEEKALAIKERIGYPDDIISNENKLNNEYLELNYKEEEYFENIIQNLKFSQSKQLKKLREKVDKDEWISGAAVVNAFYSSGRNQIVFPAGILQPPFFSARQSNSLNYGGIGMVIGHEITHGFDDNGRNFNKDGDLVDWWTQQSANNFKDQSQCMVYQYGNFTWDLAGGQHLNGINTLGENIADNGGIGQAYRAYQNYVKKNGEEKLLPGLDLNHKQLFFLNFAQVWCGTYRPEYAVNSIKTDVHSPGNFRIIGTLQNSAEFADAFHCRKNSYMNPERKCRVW
Protocol: The NEP-inhibitory activity of the compounds of formula I was evaluated by means of in vitro tests as percentage of inhibition in the formation of [^3 H]-Tyr-Gly-Gly, a metabolite of [^3 H][Leu^5 ]-enkephaline(see example 26).
a) In vitro NEP-inhibitory activity
The NEP-inhibitory activity in vitro was evaluated according to the method reported in the literature by C. Llorens et al., Eur. J. Pharmacol., 69, (1981), 113-116.
Membranes from kidney cortex were prepared according to the following procedure.
By working at 0°-4° C. the kidneys were removed from killed male Sprague-Dawley rats weighing approximately 300 g.
Cortex was carefully dissected, finely minced and suspended in homogenization buffer (10 mM sodium phosphate pH 7.4 containing 1 mM MgCl2, 30 mM NaCl, 0.02% NaN3) 1:15 weight/volume.
The tissue was then homogenized for 30 seconds using an Ultra-Turrax homogenizer.
Approximately 10 ml of homogenate were layered over 10 ml of sucrose (41% weight/volume) and centrifuged at 31200 rpm for 30 minutes at 4° C. in a fixed angle rotor.
The membranes were collected from the buffer/sucrose interface, washed twice with 50 mM TRIS/HCl buffer (pH 7.4) and resuspended into the same buffer for storage.
The membranes were stored in small aliquots at -80° C. until use. The NEP-inhibitory activity was evaluated by using the following method.
Aliquots of the membrane suspension prepared as above described (concentration 5 μg/ml of proteins) were preincubated in the presence of an aminopeptidase inhibitor (Bestatin - 1 mM) for 10 minutes at 30° C.
[^3 H][Leu^5 ]-enkephaline (15 nM) and buffer TRIS/HCl pH 7.4 (50 mM) were added in order to obtain a final volume of 100 μl.
Incubation (20 minutes at 30° C.) was stopped by adding 0.1M HCl (100 μl).
The formation of the metabolite [^3 H]Tyr-Gly-Gly was quantified by chromatography on polystyrene columns (Porapak Q).
The percentage of inhibition of the metabolite formation in the membrane preparations treated with the compounds of formula I and the reference compounds in comparison to the untreated membrane preparations was expressed as IC50 value (nM).

[2] = biological target: T2, endothelin converting enzyme (ECE) (Oryctolagus cuniculus, UniProt A0A5F9CTJ8); test: In vitro ECE-inhibitory activity (human Big endothelin-induced contraction of rabbit left saphenous artery rings; inhibition of endothelin formation); type: cell-based, Male New Zealand rabbits; settings: human Big endothelin 3×10^-8 M, compound in contact 30 minutes, 37° C.
T2 construct: The left saphenous artery was removed and cleaned of the surrounding tissue; from tissue; host or cells: left saphenous artery rings of male New Zealand rabbits, with endothelium
T2 sequence (A0A5F9CTJ8 1-783): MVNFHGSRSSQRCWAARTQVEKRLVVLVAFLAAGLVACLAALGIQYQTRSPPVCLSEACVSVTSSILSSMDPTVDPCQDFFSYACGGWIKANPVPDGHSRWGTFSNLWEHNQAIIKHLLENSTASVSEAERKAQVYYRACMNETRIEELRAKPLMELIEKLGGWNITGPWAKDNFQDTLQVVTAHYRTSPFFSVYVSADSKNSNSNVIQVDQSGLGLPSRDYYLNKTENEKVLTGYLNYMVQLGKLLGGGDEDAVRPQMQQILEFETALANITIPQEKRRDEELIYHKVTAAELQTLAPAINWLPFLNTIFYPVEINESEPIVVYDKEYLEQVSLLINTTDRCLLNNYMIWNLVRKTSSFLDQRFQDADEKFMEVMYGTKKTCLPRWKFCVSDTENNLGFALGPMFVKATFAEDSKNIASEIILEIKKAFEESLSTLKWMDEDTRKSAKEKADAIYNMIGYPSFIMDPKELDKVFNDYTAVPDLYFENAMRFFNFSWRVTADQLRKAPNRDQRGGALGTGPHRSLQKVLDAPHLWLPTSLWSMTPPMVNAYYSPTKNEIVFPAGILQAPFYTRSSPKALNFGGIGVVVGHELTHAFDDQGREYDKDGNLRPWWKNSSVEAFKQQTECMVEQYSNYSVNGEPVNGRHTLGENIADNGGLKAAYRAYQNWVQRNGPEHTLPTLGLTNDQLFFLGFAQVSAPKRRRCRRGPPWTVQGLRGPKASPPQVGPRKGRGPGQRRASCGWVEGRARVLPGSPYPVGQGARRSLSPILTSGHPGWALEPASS
Protocol: b) In vitro ECE-inhibitory activity
The ECE-inhibitory activity in vitro was evaluated according to the method reported in the literature by M. Auget et al., Eur. J. Pharmacol., 224, (1992), 101-102.
Male New Zealand rabbits (2.5-3 Kg) were sacrificed with an excess of pentobarbital and blood was drawn.
The left saphenous artery was removed and cleaned of the surrounding tissue, cut into 2-3 mm length rings and suspended in 25 ml baths containing Krebs-Henseleit solution at 37° C. and oxygenated with O2 containing 5% CO2. This solution was composed of (mM); NaCl, 118; KCl, 4.7; CaCl2, 2.5; KH2 PO4, 1.2; MgSO4, 1.2; NaHCO3, […]; glucose, 11. The preparations were kept under tension and readjusted to 1 g during the equilibration period (1 hour).
After said period, the preparations were exposed to a submaximal concentration of norepinephrine 1 μM which was repeated every 30 minutes until the response was stable. A concentration of acetylcholine 10 μM on the contraction of norepinephrine verified the presence of the endothelium.
After 30 minutes from the last contraction due to norepinephrine, a concentration of human Big endothelin 3×10^-8 M was administered. After reaching the plateau the preparations were washed for 30 minutes and a concentration 1 μM of the compound to be tested or of its vehicle was administered keeping it in contact for 30 minutes, after that a concentration of Big endothelin 3×10^-8 M was administered again. The percentage of ECE-inhibition was expressed as IC50 value (nM).

| Compound | IC50 [1] [nM] | IC50 [2] [nM] |
| --- | --- | --- |
| O=C(O)c1cccc(NC(=O)C(CS)Cc2ccccc2)c1 (stereo not drawn) [R-1, N-(3-carboxyphenyl)-3-mercapto-2-benzyl-propanamide, reference compound] | 3.12 | – |
| O=C(O)Cc1csc(NC(=O)C(CS)Cc2ccccc2)n1 (stereo not drawn) [R-2, N-(4-carboxymethyl-2-thiazolyl)-3-mercapto-2-benzyl-propanamide, reference compound] | 8.8 | – |
| O=C(O)c1cc(NC(=O)C(CS)Cc2ccccc2)cs1 (stereo not drawn) [compound 2, N-(2-carboxy-4-thienyl)-3-mercapto-2-benzyl-propanamide] | 1.5 | 2 |
| O=C(O)c1cc(NC(=O)C(CS)Cc2ccccc2)c[nH]1 (stereo not drawn) [compound 4, N-(2-carboxy-4-pyrrolyl)-3-mercapto-2-benzyl-propanamide] | 2.1 | 2 |
| O=C(O)c1cc(NC(=O)C(CS)Cc2cccnc2)cs1 (stereo not drawn) [compound 6, N-(2-carboxy-4-thienyl)-3-mercapto-2-(3-pyridylmethyl)-propanamide] | 12.6 | 1 |
| O=C(O)c1cc(NC(=O)C(CS)Cc2ccc(Cl)cc2)c[nH]1 (stereo not drawn) [compound 9, N-(2-carboxy-4-pyrrolyl)-2-(4-chlorobenzyl)-3-mercapto-propanamide] | 2.7 | 4 |
| COc1cccc(CC(CS)C(=O)Nc2c[nH]c(C(=O)O)c2)c1 (stereo not drawn) [compound 13, N-(2-carboxy-4-pyrrolyl)-3-mercapto-2-(3-methoxybenzyl)-propanamide] | 5 | 3 |
